In the oligonucleotide strings, read from the 5' end, every base follows the letter of its sugar. An asterisk marks phosphorothioate; unmarked linkages are phosphodiester. Other units and linkages are bracketed, terminal groups are in braces. A string of capitals states the bases alone. e = 2'-O-(2-methoxyethyl) (MOE); [5mC] = 5-methylcytosine
Experiments:
Assay type in all cases: cell-based, human
aP2 = aP2 mRNA expression in adipocytes (real-time PCR); settings: for aP2 mRNA: Table 75
adipocytes = experiment: Triglyceride accumulation assay in adipocytes
PPARγ = PPARγ mRNA expression in adipocytes (real-time PCR)
HSL = HSL mRNA expression in adipocytes (real-time PCR)
Glut4 = Glut4 mRNA expression in adipocytes (real-time PCR)
[1] = Table 18, differentiating adipocytes, control = treatment with ISIS 342673
[2] = differentiating adipocytes transfected with oligomeric compound
[3] = differentiating adipocytes transfected with oligomeric compound, Table 75
[4] = Table 17, differentiating adipocytes, control = treatment with ISIS 342673

Substance: 327912 (antisense eA*eA*e[5mC]*eT*eA*eT*eA*e[5mC]*eA*eA*eT*e[5mC]*eT*eA*e[5mC]*eT*eA*e[5mC]*e[5mC]*eT*e[5mC]*eA) [compound 327912]
- AP2 mRNA (aP2; [1]): 90.1 percentage of control
- aP2 mRNA (aP2; [2]): 101 percentage of untreated control (UTC)
- TG (triglyceride accumulation) (adipocytes; [1]): 107.4 percentage of control
- TG (triglyceride accumulation) (adipocytes; [3]): 112 percentage of untreated control (UTC)
- PPAR gamma mRNA (PPARγ; [1]): 76.9 percentage of control
- PPAR gamma mRNA (PPARγ; [3]): 78 percentage of untreated control (UTC)
- HSL mRNA (HSL; [1]): 90.6 percentage of control
- HSL mRNA (HSL; [3]): 95 percentage of untreated control (UTC)
- GLUT4 mRNA (Glut4; [1]): 89.0 percentage of control
- GLUT4 mRNA (Glut4; [3]): 79 percentage of untreated control (UTC)

Substance: 328105 (antisense e[5mC]*e[5mC]*eT*e[5mC]*eA*eA*eT*eT*eA*eT*eT*eG*eG*eA*eA*eA*eT*e[5mC]*eA*e[5mC]*eA) [compound 328105]
- AP2 mRNA (aP2; [1]): 88.2 percentage of control
- aP2 mRNA (aP2; [2]): 102 percentage of untreated control (UTC)
- TG (triglyceride accumulation) (adipocytes; [1]): 93.1 percentage of control
- TG (triglyceride accumulation) (adipocytes; [3]): 82 percentage of untreated control (UTC)
- PPAR gamma mRNA (PPARγ; [1]): 93.3 percentage of control
- PPAR gamma mRNA (PPARγ; [3]): 85 percentage of untreated control (UTC)
- HSL mRNA (HSL; [1]): 94.2 percentage of control
- HSL mRNA (HSL; [3]): 95 percentage of untreated control (UTC)
- GLUT4 mRNA (Glut4; [1]): 94.2 percentage of control
- GLUT4 mRNA (Glut4; [3]): 75 percentage of untreated control (UTC)

Substance: 328110 (antisense eG*eA*eT*eA*eA*eA*eG*e[5mC]*e[5mC]*eA*eA*eT*eA*eA*eA*e[5mC]*eT*eG*eT*e[5mC]*eA) [compound 328110]
- AP2 mRNA (aP2; [1]): 93.3 percentage of control
- aP2 mRNA (aP2; [2]): 89 percentage of untreated control (UTC)
- TG (triglyceride accumulation) (adipocytes; [1]): 97.7 percentage of control
- TG (triglyceride accumulation) (adipocytes; [3]): 96 percentage of untreated control (UTC)
- PPAR gamma mRNA (PPARγ; [1]): 91.2 percentage of control
- PPAR gamma mRNA (PPARγ; [3]): 80 percentage of untreated control (UTC)
- HSL mRNA (HSL; [1]): 91.0 percentage of control
- HSL mRNA (HSL; [3]): 84 percentage of untreated control (UTC)
- GLUT4 mRNA (Glut4; [1]): 104.7 percentage of control
- GLUT4 mRNA (Glut4; [3]): 77 percentage of untreated control (UTC)

Substance: 328111 (antisense eT*e[5mC]*e[5mC]*eG*eA*eG*eT*e[5mC]*eG*eG*eA*eG*eG*eA*eG*eG*eA*eG*eG*eA*eA) [compound 328111]
- AP2 mRNA (aP2; [1]): 71.5 percentage of control
- aP2 mRNA (aP2; [2]): 79 percentage of untreated control (UTC)
- TG (triglyceride accumulation) (adipocytes; [1]): 101.9 percentage of control
- TG (triglyceride accumulation) (adipocytes; [3]): 65 percentage of untreated control (UTC)
- PPAR gamma mRNA (PPARγ; [1]): 74.9 percentage of control
- PPAR gamma mRNA (PPARγ; [3]): 65 percentage of untreated control (UTC)
- HSL mRNA (HSL; [1]): 69.5 percentage of control
- HSL mRNA (HSL; [3]): 77 percentage of untreated control (UTC)
- GLUT4 mRNA (Glut4; [1]): 59.6 percentage of control
- GLUT4 mRNA (Glut4; [3]): 50 percentage of untreated control (UTC)

Substance: 328114 (antisense eA*eA*eT*e[5mC]*eT*e[5mC]*eA*eT*eT*eT*eT*e[5mC]*eA*eT*eA*e[5mC]*eT*eT*eG*e[5mC]*eA) [compound 328114]
- AP2 mRNA (aP2; [1]): 94.4 percentage of control
- AP2 mRNA (aP2; [2]): 123 percentage of untreated control (UTC)
- TG (triglyceride accumulation) (adipocytes; [1]): 117.3 percentage of control
- TG (triglyceride accumulation) (adipocytes; [2]): 110 percentage of untreated control (UTC)
- PPAR gamma mRNA (PPARγ; [1]): 89.3 percentage of control
- PPAR gamma mRNA (PPARγ; [2]): 106 percentage of untreated control (UTC)
- HSL mRNA (HSL; [1]): 93.3 percentage of control
- HSL mRNA (HSL; [2]): 134 percentage of untreated control (UTC)
- GLUT4 mRNA (Glut4; [1]): 114.9 percentage of control
- GLUT4 mRNA (Glut4; [2]): 116 percentage of untreated control (UTC)

Substance: 328115 (antisense eA*eG*eA*eA*eG*eG*eT*eG*eG*eG*eG*eA*eG*e[5mC]*eA*eG*e[5mC]*eG*eT*e[5mC]*eA) [compound 328115]
- AP2 mRNA (aP2; [1]): 80.0 percentage of control
- aP2 mRNA (aP2; [2]): 74 percentage of untreated control (UTC)
- TG (triglyceride accumulation) (adipocytes; [1]): 108.7 percentage of control
- TG (triglyceride accumulation) (adipocytes; [3]): 53 percentage of untreated control (UTC)
- PPAR gamma mRNA (PPARγ; [1]): 95.8 percentage of control
- PPAR gamma mRNA (PPARγ; [3]): 80 percentage of untreated control (UTC)
- HSL mRNA (HSL; [1]): 89.0 percentage of control
- HSL mRNA (HSL; [3]): 75 percentage of untreated control (UTC)
- GLUT4 mRNA (Glut4; [1]): 132.0 percentage of control
- GLUT4 mRNA (Glut4; [3]): 84 percentage of untreated control (UTC)

Substance: 328117 (antisense eT*e[5mC]*e[5mC]*eA*e[5mC]*eA*eA*eA*eG*e[5mC]*eT*eG*eA*eA*e[5mC]*eA*eT*eG*eT*e[5mC]*eT) [compound 328117]
- AP2 mRNA (aP2; [4]): 65.4 percentage of control
- aP2 mRNA (aP2; [2]): 28 percentage of untreated control (UTC)
- TG (triglyceride accumulation) (adipocytes; [4]): 55.0 percentage of control
- TG (triglyceride accumulation) (adipocytes; [3]): 16 percentage of untreated control (UTC)
- PPAR gamma mRNA (PPARγ; [4]): 64.1 percentage of control
- PPAR gamma mRNA (PPARγ; [3]): 42 percentage of untreated control (UTC)
- HSL mRNA (HSL; [4]): 61.7 percentage of control
- HSL mRNA (HSL; [3]): 18 percentage of untreated control (UTC)
- GLUT4 mRNA (Glut4; [4]): 68.1 percentage of control
- GLUT4 mRNA (Glut4; [3]): 13 percentage of untreated control (UTC)

Substance: 328119 (antisense eA*eA*eT*eA*eA*e[5mC]*eA*e[5mC]*eA*e[5mC]*eA*eT*e[5mC]*e[5mC]*eA*e[5mC]*eT*eT*eT*eA*eA) [compound 328119]
- AP2 mRNA (aP2; [4]): 99.9 percentage of control
- aP2 mRNA (aP2; [2]): 119 percentage of untreated control (UTC)
- TG (triglyceride accumulation) (adipocytes; [4]): 90.2 percentage of control
- TG (triglyceride accumulation) (adipocytes; [3]): 109 percentage of untreated control (UTC)
- PPAR gamma mRNA (PPARγ; [4]): 82.7 percentage of control
- PPAR gamma mRNA (PPARγ; [3]): 102 percentage of untreated control (UTC)
- HSL mRNA (HSL; [4]): 98.5 percentage of control
- HSL mRNA (HSL; [3]): 101 percentage of untreated control (UTC)
- GLUT4 mRNA (Glut4; [4]): 95.2 percentage of control
- GLUT4 mRNA (Glut4; [3]): 104 percentage of untreated control (UTC)

Substance: 328123 (antisense eT*eT*eA*e[5mC]*eA*eG*eG*eT*eG*e[5mC]*eT*eG*e[5mC]*eA*eA*e[5mC]*eT*eG*eG*eA*eA) [compound 328123]
- AP2 mRNA (aP2; [4]): 106.7 percentage of control
- aP2 mRNA (aP2; [2]): 119 percentage of untreated control (UTC)
- TG (triglyceride accumulation) (adipocytes; [4]): 120.8 percentage of control
- TG (triglyceride accumulation) (adipocytes; [3]): 54 percentage of untreated control (UTC)
- PPAR gamma mRNA (PPARγ; [4]): 74.7 percentage of control
- PPAR gamma mRNA (PPARγ; [3]): 88 percentage of untreated control (UTC)
- HSL mRNA (HSL; [4]): 85.4 percentage of control
- HSL mRNA (HSL; [3]): 91 percentage of untreated control (UTC)
- GLUT4 mRNA (Glut4; [4]): 162.4 percentage of control
- GLUT4 mRNA (Glut4; [3]): 129 percentage of untreated control (UTC)

Substance: 328125 (antisense eT*eA*eT*eG*eA*eA*eA*eT*eG*e[5mC]*e[5mC]*eA*eG*eA*eG*e[5mC]*eT*eG*e[5mC]*e[5mC]*eA) [compound 328125]
- AP2 mRNA (aP2; [4]): 86.9 percentage of control
- aP2 mRNA (aP2; [2]): 75 percentage of untreated control (UTC)
- TG (triglyceride accumulation) (adipocytes; [4]): 81.7 percentage of control
- TG (triglyceride accumulation) (adipocytes; [3]): 44 percentage of untreated control (UTC)
- PPAR gamma mRNA (PPARγ; [4]): 76.1 percentage of control
- PPAR gamma mRNA (PPARγ; [3]): 68 percentage of untreated control (UTC)
- HSL mRNA (HSL; [4]): 75.8 percentage of control
- HSL mRNA (HSL; [3]): 48 percentage of untreated control (UTC)
- GLUT4 mRNA (Glut4; [4]): 99.5 percentage of control
- GLUT4 mRNA (Glut4; [3]): 65 percentage of untreated control (UTC)

Substance: 328129 (antisense eA*eG*e[5mC]*e[5mC]*eT*e[5mC]*e[5mC]*eT*eT*e[5mC]*eT*eT*e[5mC]*eT*e[5mC]*eG*eT*eA*e[5mC]*eT*eA) [compound 328129]
- AP2 mRNA (aP2; [4]): 67.6 percentage of control
- aP2 mRNA (aP2; [2]): 54 percentage of untreated control (UTC)
- TG (triglyceride accumulation) (adipocytes; [4]): 53.8 percentage of control
- TG (triglyceride accumulation) (adipocytes; [3]): 19 percentage of untreated control (UTC)
- PPAR gamma mRNA (PPARγ; [4]): 71.8 percentage of control
- PPAR gamma mRNA (PPARγ; [3]): 59 percentage of untreated control (UTC)
- HSL mRNA (HSL; [4]): 56.5 percentage of control
- HSL mRNA (HSL; [3]): 34 percentage of untreated control (UTC)
- GLUT4 mRNA (Glut4; [4]): 60.0 percentage of control
- GLUT4 mRNA (Glut4; [3]): 36 percentage of untreated control (UTC)

Substance: 328133 (eT*eG*eA*eA*eG*eG*eT*eT*e[5mC]*eG*eG*eA*eG*eA*eT*eA*eG*eG*e[5mC]*eT*eA; anti-miR) [compound 328133]
- AP2 mRNA (aP2; [4]): 69.5 percentage of control
- aP2 mRNA (aP2; [2]): 66 percentage of untreated control (UTC)
- TG (triglyceride accumulation) (adipocytes; [4]): 61.2 percentage of control
- TG (triglyceride accumulation) (adipocytes; [3]): 43 percentage of untreated control (UTC)
- PPAR gamma mRNA (PPARγ; [4]): 63.8 percentage of control
- PPAR gamma mRNA (PPARγ; [3]): 53 percentage of untreated control (UTC)
- HSL mRNA (HSL; [4]): 63.0 percentage of control
- HSL mRNA (HSL; [3]): 49 percentage of untreated control (UTC)
- GLUT4 mRNA (Glut4; [4]): 91.9 percentage of control
- GLUT4 mRNA (Glut4; [3]): 59 percentage of untreated control (UTC)

Substance: 328136 (eA*eA*e[5mC]*eT*eA*e[5mC]*eT*eT*e[5mC]*e[5mC]*eA*eG*eA*eG*e[5mC]*eA*eG*eG*eT*eG*eA; anti-miR) [compound 328136]
- AP2 mRNA (aP2; [4]): 73.0 percentage of control
- aP2 mRNA (aP2; [2]): 57 percentage of untreated control (UTC)
- TG (triglyceride accumulation) (adipocytes; [4]): 47.0 percentage of control
- TG (triglyceride accumulation) (adipocytes; [3]): 26 percentage of untreated control (UTC)
- PPAR gamma mRNA (PPARγ; [4]): 72.7 percentage of control
- PPAR gamma mRNA (PPARγ; [3]): 54 percentage of untreated control (UTC)
- HSL mRNA (HSL; [4]): 65.0 percentage of control
- HSL mRNA (HSL; [3]): 37 percentage of untreated control (UTC)
- GLUT4 mRNA (Glut4; [4]): 66.7 percentage of control
- GLUT4 mRNA (Glut4; [3]): 35 percentage of untreated control (UTC)
